Data set [1] in a line: discoloration / decomposition of quat on compounding into polyethylene melt. In kind it is physicochemical. Also on record: key: ++: heavy discoloration; +: discoloration; 0: weak discoloration; −: hardly any discoloration. The method, then:
Experiments were carried out in which the additives shown in Table 2 were processed into a polyethylene melt in a concentration of 2.5%, 5% and 10% into polyethylene RT Dowlex 2388. The compounding conditions included 12 minutes of mixing at 210° C. Partial decomposition of the quat was observed during this step.
Part of the time, a strong violet coloration and a (“fishy”) smell of amines were observed, in particular with additives containing multiple methyl groups and at high concentrations. The probable decomposition mechanism is a Hofmann decomposition.

Data set [2] is described as follows: solubility of the oil in solvents. In kind it is physicochemical. The method, then:
A 250 mL flask was filled with 37.92 g (52.5 mmol) of PEG (400) ditosylate. Approximately 100 mL of acetone was added, followed by 16.5 g (approximately 21.6 mL or 104.9 mmol) of dimethyloctylamine. […] The oil was soluble in acetone, chloroform and water, but insoluble in ethyl acetate.

Setting [3] is: 2.5% additive in polyethylene RT Dowlex 2388, 12 minutes of mixing at 210° C.
[4] abbreviates: 5% additive in polyethylene RT Dowlex 2388, 12 minutes of mixing at 210° C.
[5] abbreviates: 10% additive in polyethylene RT Dowlex 2388, 12 minutes of mixing at 210° C.

In the case of `CCCCCCCCCCCCCCCCCC[N+](C)(C)CCCCCCCCCCCCCCCCCC` [additive C], the figures for the discoloration in data set [1] (setting [3]), in data set [1] (setting [4]) and in data set [1] (setting [5]) were 0, 0 and “+”, respectively.
As to “α,ω-bis(dimethyloctylammonium)PEG(400) ditosylate”, the solubility entry in data set [2] (acetone) is “soluble”; in data set [2] (chloroform), “soluble”; in data set [2] (ethyl acetate), “insoluble”; in data set [2] (water), “soluble”.
For `CCCCCCCCCCCCCCCCCC[N+](C)(C)C` [additive B], the discoloration in data set [1] (setting [3]) was 0; in data set [1] (setting [4]), “+”; in data set [1] (setting [5]) it was “++”.
With `Br.CCCCCCCCCCCCCCCCCCN(C)CCCCCCCCCCCCCCCCCC` [additive D], the discoloration result in data set [1] (setting [3]) is recorded as “−”; in data set [1] (setting [4]), “−”; in data set [1] (setting [5]), 0.
For the molecule `Br.CCCCCCCCCCCCCCCCCCN(CCCCCCCCCCCCCCCCCC)CCCCCCCCCCCCCCCCCC` [additive E], the discoloration entry in data set [1] (setting [3]), in data set [1] (setting [4]) and in data set [1] (setting [5]) was “−” throughout.
With `CCCCCCCCCCCCCCCCCC[N+](C)(C)Cc1ccccc1` [additive A], the discoloration entry in data set [1] (setting [3]), in data set [1] (setting [4]) and in data set [1] (setting [5]) was “+” in each case.

(Values after patent US20160150778A1, “PLASTIC HAVING A BIOCIDAL SURFACE AND METHOD FOR PRODUCING SAID PLASTIC” (JANSEN AG, priority 2013, published 2016).)
